The values that follow come from US20030102246A1, “Method for improving the stability of stored and/or used light-sensitive therapeutic systems or components thereof” (LTS Lohmann Therapie-Systeme AG, priority 1999, published 2003).

The conditions of series [1]: cited from earlier work.
The nature of series [2]: Light stability of lacidipine solution in differently coloured polypropylene vessels exposed to daylight. In kind it is physicochemical. As to conditions: daylight 6 to 8 hours. On the procedure:
As a representative of the very light-sensitive 1,4-dihydropyridine derivatives, lacidipine is used. By way of the example of lacidipine it is possible to show the influence the absorption spectrum of a polymer, for instance, one based on polypropylene, has on the stability of the 1,4-dihydropyridine derivative.
To carry out the experiment, the lacidipine was dissolved in a solvent. Since dissolved lacidipine is very sensitive to electromagnetic-radiation, it was possible to clearly determine the influence of the polymers examined. The lacidipine solution was filled in differently coloured vessels of polypropylene and exposed to daylight for a defined period of time. The vessels in this context served as models for a coloured film. After the vessels had been exposed to a certain radiation (for a time of 6 to 8 hours), the lacidipine content of the samples was determined. On the basis of the known initial concentration and the detected active substance amounts it was possible to make a statement on the protective action of the polymers used.
The absorption spectrum of lacidipine contains three maxima [238.4 nm; 282.8 nm; 367.4 nm]. These wavelength regions determine the light-sensitivity of the active substance. […] It can thus be concluded that to ensure maximum stability in the present case brown or aluminized polymers should be used.

On to `CC1=C(/C=C/C(C)=C/C=C/C(C)=C/C(=O)O)C(C)(C)CCC1` [vitamine A acid], for which the “rate of degradation of the active substance” value in series [1] (with a yellow colourant having its absorption maximum in the range of 400 nm) is given as “substantially reduced”. Further, in series [1] (with light-stability or screening agents absorbing UV-A or UV-B rays), the stabilisation against light result is recorded as “did not yield the desired results”.

For `CCOC(=O)C1=C(C)NC(C)=C(C(=O)OCC)C1c1ccccc1/C=C/C(=O)OC(C)(C)C` [lacidipine], the “Amount of active substance after irradiation” value in series [2] (polymer aluminized, lichtundurchlässig) was 99.36 % of initial amount; in series [2] (polymer blue, clear, absorption range <325 nm, 500 nm-700 nm), 23.46 % of initial amount; in series [2] (polymer brown, clear, absorption range <500 nm) it was 98.93 % of initial amount; in series [2] (polymer green, clear, absorption range <325 nm, >800 nm) it was 12.40 % of initial amount; in series [2] (polymer orange, klar, absorption range 550 nm-750 nm), 15.65 % of initial amount; in series [2] (polymer transparent, clear, absorption range <300 nm), 14.79 % of initial amount. For the same molecule, the “Amount of active substance after irradiation” value in series [2] (polymer transparent, cloudy, absorption range <300 nm) was 21.05 % of initial amount; in series [2] (polymer yellow, clear, absorption range <350 nm, >700 nm), 29.32 % of initial amount.
